Data taken from patent publication US20200077656A1, “Use of an Acyclic Picolinamide Compound as a Fungicide for Control of Phytopathogenic Fungi in Row Crops” (priority 2017, published 2020).
Where two headings read alike, the source gives them in different places.

What was measured:
Puccinia polysora = assay: Field assessment of Puccinia polysora (PUCCPY) in corn; type: in vivo; details: EC + Trycol adjuvant
Magnaporthe grisea = type: in vivo; details: two applications, EC + Trycol adjuvant, rice
Cercospora beticola = assay: Field assessment of Cercospora beticola (CERCBE) on sugar beet, two trials averaged; type: in vivo
Procedure: Field Assessment of Cercospora beticola (CERCBE) on Sugar Beet: Assessment of compound I of CERCBE on sugar beet was performed in two separate field trials. In the first trial, a fungicidal treatment containing an EC and SC formulations of compound I by itself and in combination with an adjuvant (Phase II, 50% w/w at 0.5% v/v) was sprayed on sugar beet plants ([…] variety) six times during the course of 7 weeks at the 18-39 growth stages of sugar beet. […] In the second trial, a fungicidal treatment containing an EC and SC formulations of compound I by itself and in combination with an adjuvant (Phase II, 50% w/w at 0.5% v/v) was sprayed on sugar beet plants (BEAVA) five times during the course of 4 weeks at the 36-49 growth stages of sugar beet. […] Disease severity was recorded as a percentage of visual diseased foliage on whole plot. Cercospora leaf spot infection was assessed three times at 7, 14 and 21 days after the last application. The disease infection was recorded following EPPO PP 1/1 (4) guideline prescriptions. Area under the disease progress curve (AUDPC) was calculated for each plot using the sets of recorded severity data. Relative AUDPC (% control based on AUDPC) was calculated as percent of the nontreated control and averaged over both field trials.

Pyrenophora teres = assay: Field assessment of Pyrenophora teres (PYRNTE) on barley, Trial 2 (natural infection); type: in vivo; details: EC + Trycol; for % Control (AUDPC) of PYRNTE, Trial 2: barley
Procedure: (§1) Compound I was applied at a water volume of 200 L/ha under natural infection of Pyrenophora teres. Disease severity was recorded as a percentage of visual diseased foliage on whole plot. Net blotch of barley infection was assessed three times at 7, 14 and 21 days after the last application. The disease infection was recorded following EPPO PP1/26 guideline prescriptions. Area under the disease progress curve (AUDPC) was calculated for each plot using the sets of recorded severity data. Relative AUDPC (% control based on AUDPC) was calculated as percent of the nontreated control.

[1] = system: Blumeria graminis f. sp. hordei; assay: Greenhouse assessment of Blumeria graminis f. sp. hordei (ERYSGH) on barley; type: in vivo; details: inoculated 1 day post application, barley seedlings
Procedure: Greenhouse Assessment of Blumeria graminis f sp. hordei ([…]) on Barley: In greenhouse studies, technical grades of material were dissolved in acetone, which were then mixed with nine volumes of water containing 100 ppm of Triton X-100. The fungicide formulations were applied onto seedling plants using an automated booth sprayer to run off. All sprayed plants were allowed to dry prior to further handling. Test plants were inoculated with powdery mildew of barley 1-day post application. When disease symptoms were fully expressed on the untreated plants, infection levels were assessed on a scale of 0 to 100 percent disease severity. Percent disease control was calculated using the ratio of disease severity on treated plants relative to untreated plants.

[2] = system: Blumeria graminis f. sp. tritici; assay: Field assessment of Blumeria graminis f. sp. tritici (ERYSGT) on wheat; type: in vivo
Procedure: as §1, with “Field Assessment” for “Compound I was applied at a water volume”, “Blumeria graminis f sp. […]” for “200 L/ha under natural infection of Pyrenophora teres.”, “Net blotch of barley” left out, “12, 19” for “7, 14”, “26” for “21”

[3] = system: peanut (ARHHY, Arachis hypogaea); assay: Yield of peanut in Sclerotium rolfsii field trials; type: in vivo; details: 49 DAAD
[4] = system: Cercosporidium personatum; assay: Field assessment of Cercosporidium personatum (MYCOBE) in peanut; type: in vivo; details: Table 9, late leaf spot of peanut, AUDPC based
[5] = system: soybean (GLYMX, Glycine max); assay: Yield of soybean in Cercospora sojina field trials; type: in vivo; details: harvest at crop maturity
Sclerotium rolfsii = assay: Field assessment of Sclerotium rolfsii (SCLORO) in peanut, percent stem incidence; details: 42 DAAD, untreated 41.8
Procedure: Four applications, at two week intervals were made to each trial, starting at growth stage BBCH66 and continuing through BBCH84. The experimental plots were conducted with natural infestation of the pathogen. The treatment was part of an experimental trial designed as a randomized complete block (RCB) with four replications and a plot of approximately 6×40 ft.
Percent stem incidence (percent of stems with any disease, based on 80 stems counted per plot) was assessed at 42 days after application D (42 DAAD).

[6] = 50 g/ha, Agnique BP420 200 mL/ha
[7] = 75 g/ha, Agnique BP420 300 mL/ha
[8] = 100 g/ha, Adsee C80W 80% 250 g/ha
[9] = 100 g/ha, Agnique BP420 400 mL/ha
[10] = 150 g/ha, Agnique BP420 600 mL/ha

## COc1ccnc(C(=O)N[C@@H](C)C(=O)O[C@@H](C)C(c2ccc(F)cc2)c2ccc(F)cc2)c1OC(C)=O [Compound I, (S)-1,1-bis(4-fluorophenyl)propan-2-yl (3-acetoxy-4-methoxypicolinoyl)-L-alaninate]
Puccinia polysora; 50 g ai/ha
  Disease control of PUCCPY, percent control based on AUDPC: C (26-50)
Puccinia polysora; 100 g ai/ha
  Disease control of PUCCPY, percent control based on AUDPC: B (51-75)
Puccinia polysora; 150 g ai/ha
  Disease control of PUCCPY, percent control based on AUDPC: B (51-75)
Magnaporthe grisea; 50 g ai/ha
  Disease control of PYRIOR, percent control based on AUDPC: C (26-50)
Magnaporthe grisea; 100 g ai/ha
  Disease control of PYRIOR, percent control based on AUDPC: C (26-50)
Magnaporthe grisea; 150 g ai/ha
  Disease control of PYRIOR, percent control based on AUDPC: B (51-75)
Magnaporthe grisea; 200 g ai/ha
  Disease control of PYRIOR, percent control based on AUDPC: B (51-75)
Cercospora beticola; EC, 75 g ai/ha, no adjuvant
  % Control (AUDPC) of CERCBE: B (51-75)
Cercospora beticola; EC, 75 g ai/ha, with Phase II adjuvant
  % Control (AUDPC) of CERCBE: B (51-75)
Cercospora beticola; EC, 150 g ai/ha, no adjuvant
  % Control (AUDPC) of CERCBE: A (76-100)
Cercospora beticola; SC, 75 g ai/ha, no adjuvant
  % Control (AUDPC) of CERCBE: B (51-75)
Cercospora beticola; SC, 75 g ai/ha, with Phase II adjuvant
  % Control (AUDPC) of CERCBE: B (51-75)
Cercospora beticola; SC, 150 g ai/ha, no adjuvant
  % Control (AUDPC) of CERCBE: A (76-100)
Pyrenophora teres; 50 g ai/ha
  % Control (AUDPC) of PYRNTE, Trial 2: B (51-75)
Pyrenophora teres; 100 g ai/ha
  % Control (AUDPC) of PYRNTE, Trial 2: B (51-75)
Pyrenophora teres; 150 g ai/ha
  % Control (AUDPC) of PYRNTE, Trial 2: B (51-75)
Pyrenophora teres; replicated field trial, 50, 100 and 150 g ai/ha, natural infection
  control of Pyrenophora teres on barley (in words): useful levels of control
[1]; 0.39 ppm
  % Control of ERYSGH (disease severity treated relative to untreated): B (51-75)
[1]; 1.56 ppm
  % Control of ERYSGH (disease severity treated relative to untreated): A (76-100)
[1]; 6.25 ppm
  % Control of ERYSGH (disease severity treated relative to untreated): A (76-100)
[1]; 25 ppm
  % Control of ERYSGH (disease severity treated relative to untreated): A (76-100)
[1]; 100 ppm
  % Control of ERYSGH (disease severity treated relative to untreated): A (76-100)
[2]; 5 g ai/ha, EC + Agnique BP-420
  % Control (AUDPC) of ERYSGT: C (26-50)
[2]; 5 g ai/ha, SC + Agnique BP-420
  % Control (AUDPC) of ERYSGT: C (26-50)
[2]; 20 g ai/ha, EC + Agnique BP-420
  % Control (AUDPC) of ERYSGT: A (76-100)
[2]; 20 g ai/ha, SC + Agnique BP-420
  % Control (AUDPC) of ERYSGT: B (51-75)
[2]; 40 g ai/ha, EC + Agnique BP-420
  % Control (AUDPC) of ERYSGT: A (76-100)
[2]; 40 g ai/ha, SC + Agnique BP-420
  % Control (AUDPC) of ERYSGT: A (76-100)
[2]; 60 g ai/ha, EC + Agnique BP-420
  % Control (AUDPC) of ERYSGT: A (76-100)
[2]; 60 g ai/ha, SC + Agnique BP-420
  % Control (AUDPC) of ERYSGT: A (76-100)
[2]; 80 g ai/ha, EC + Agnique BP-420
  % Control (AUDPC) of ERYSGT: A (76-100)
[2]; 80 g ai/ha, SC + Agnique BP-420
  % Control (AUDPC) of ERYSGT: A (76-100)
[2]; 120 g ai/ha, EC + Agnique BP-420
  % Control (AUDPC) of ERYSGT: A (76-100)
[2]; 120 g ai/ha, SC + Agnique BP-420
  % Control (AUDPC) of ERYSGT: A (76-100)
[3]; [6]
  ARHHY Yield Percent of Untreated: 96.4%
[3]; 50 g/ha, MSO 100 g/ha
  ARHHY Yield Percent of Untreated: 104.9%
[3]; [7]
  ARHHY Yield Percent of Untreated: 113.9%
[3]; 75 g/ha, MSO 150 g/ha
  ARHHY Yield Percent of Untreated: 112.8%
[3]; [8]
  ARHHY Yield Percent of Untreated: 122.0%
[3]; [9]
  ARHHY Yield Percent of Untreated: 118.0%
[3]; 100 g/ha, MSO 200 g/ha
  ARHHY Yield Percent of Untreated: 115.7%
[3]; [10]
  ARHHY Yield Percent of Untreated: 130.0%
[3]; 150 g/ha, MSO 300 g/ha
  ARHHY Yield Percent of Untreated: 131.5%
[4]; [6]
  Calc Percent Control of MYCOBE: 28.5%
[4]; 50 g/ha, MSO 100 g/ha
  Calc Percent Control of MYCOBE: 24.0%
[4]; [7]
  Calc Percent Control of MYCOBE: 30.0%
[4]; 75 g/ha, MSO 150 g/ha
  Calc Percent Control of MYCOBE: 26.8%
[4]; [8]
  Calc Percent Control of MYCOBE: 26.9%
[4]; [9]
  Calc Percent Control of MYCOBE: 36.0%
[4]; 100 g/ha, MSO 200 g/ha
  Calc Percent Control of MYCOBE: 29.0%
[4]; [10]
  Calc Percent Control of MYCOBE: 44.7%
[4]; 150 g/ha, MSO 300 g/ha
  Calc Percent Control of MYCOBE: 38.5%
[5]; [6]
  GLXMA Yield Percent of Untreated: 117.0%
[5]; 50 g/ha, MSO 100 g/ha
  GLXMA Yield Percent of Untreated: 108.0%
[5]; [7]
  GLXMA Yield Percent of Untreated: 119.2%
[5]; 75 g/ha, MSO 150 g/ha
  GLXMA Yield Percent of Untreated: 114.6%
[5]; [8]
  GLXMA Yield Percent of Untreated: 115.3%
[5]; [9]
  GLXMA Yield Percent of Untreated: 117.6%
[5]; 100 g/ha, MSO 200 g/ha
  GLXMA Yield Percent of Untreated: 113.4%
[5]; [10]
  GLXMA Yield Percent of Untreated: 114.8%
[5]; 150 g/ha, MSO 300 g/ha
  GLXMA Yield Percent of Untreated: 112.9%
Sclerotium rolfsii; [6]
  Calc Percent Stem Incidence of SCLORO: 41.6%
Sclerotium rolfsii; 50 g/ha, MSO 100 g/ha
  Calc Percent Stem Incidence of SCLORO: 39.1%
Sclerotium rolfsii; [7]
  Calc Percent Stem Incidence of SCLORO: 33.2%
Sclerotium rolfsii; 75 g/ha, MSO 150 g/ha
  Calc Percent Stem Incidence of SCLORO: 33.0%
Sclerotium rolfsii; [9]
  Calc Percent Stem Incidence of SCLORO: 27.9%
Sclerotium rolfsii; 100 g/ha, MSO 200 g/ha
  Calc Percent Stem Incidence of SCLORO: 28.2%
Sclerotium rolfsii; [10]
  Calc Percent Stem Incidence of SCLORO: 29.6%
Sclerotium rolfsii; 150 g/ha, MSO 300 g/ha
  Calc Percent Stem Incidence of SCLORO: 24.7%
